From US11458153B2, “Drug delivery composition comprising a self-assembled gelator” (The Brigham and Women's Hospital, Inc., priority 2008, dated 2022)

How the values were obtained:
[1] = Gelation studies with Apn-based prodrug gelators in water and organic solvents; format: physicochemical; design: key to Gelation ability: G = gel; P = precipitate; S = soluble; I = insoluble
Description: Gelation Studies with Prodrug-Based Gelators. Gelation abilities of Apn based amphiphilic prodrugs have been investigated thoroughly in a wide range of solvents. For detailed gelation results, see Table 1, below). Typically, the required amount of gelator was placed in a glass vial and with an appropriate solvent. […] The resulting solution was slowly cooled to room temperature and gelation was visually observed. […] Despite of prolonged heating Apn-11-CH3 was not soluble in water. […] In addition, Apn-7-COOH is soluble in basic solutions (pH is more than 8).
All gels were opaque in nature and stable for several weeks.
Preparation of Gels. Typically, gelator (0.1-5 mg) and required solvent (0.1-1 mL) were placed into a 2 mL scintillation vial, which was then sealed with a screw cap. The vial was heated with shaking until the solid was completely dissolved.

[2] = target: T1, lipase (Lipolase 100L, Type EX) (Thermomyces lanuginosus, UniProt O59952); assay: Enzyme-triggered hydrogel degradation and drug release; format: in vitro ADME
T1 construct: purchased Novozymes through Brenntag North America Lipolase 100L, Type EX
T1 sequence (O59952 23-291): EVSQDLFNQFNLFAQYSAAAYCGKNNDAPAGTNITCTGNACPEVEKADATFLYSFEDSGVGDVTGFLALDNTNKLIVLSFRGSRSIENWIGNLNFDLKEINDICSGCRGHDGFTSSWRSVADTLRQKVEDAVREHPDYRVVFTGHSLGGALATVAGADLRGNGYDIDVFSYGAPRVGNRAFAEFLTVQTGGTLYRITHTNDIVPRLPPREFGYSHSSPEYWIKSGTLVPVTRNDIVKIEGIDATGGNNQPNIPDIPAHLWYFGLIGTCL
Procedure: Encapsulation and release of curcumin was previously studied by the Ultra-Violet absorbance spectroscopy (λmax at 424 nm). Absorbance spectrum of modified Apn-7-COOH was similar to that of Apn (FIG. 6B). In this instance, enzyme-triggered single and multiple drug delivery has been carried out using two sets of hydrogel samples, i.e., hydrogels of Apn-7-COOH and Apn-8-Apn with and without curcumin. In the first set, lipase (Lipolase 100L, Type EX, lipase units 100 KLU/g) was added to the preformed hydrogel of Apn-7-COOH (2 wt %) and kept it at 37° C. which is lower than gel melting temperature. It was anticipated that lipase (esterase) would hydrolyze the ester bond of prodrug-based gelator (Apn-7-COOH) to release acetaminophen and dicarboxylic acid as the hydrogel degrades. As expected, after 48 hours the gel completely degraded and became a clear solution.
To test this further, and examine multiple (two) drugs delivery (FIGS. 6A-6E), curcumin was encapsulated in the hydrogel of Apn-7-COOH (2 wt %) and to that lipase was added and kept it at 37° C. Absorbance spectra were recorded on aliquots which were collected (after the addition of enzyme to the hydrogel) at regular intervals (FIG. 6C). […] The concentration of the enzyme used in these in vitro experiments is higher than physiological concentration of esterases (for example, physiological concentration of cholesterol esterase is 7 U/ml).
Increasing either concentration of enzyme or incubation temperature to 45° C. doubles the drug release rate, which was correlating with previous findings.
To analyze the gel degradation mechanism, another prodrug Apn-5-ether-COOH was synthesized (FIG. 2), where hydrocarbon chain (which is bearing terminal carboxylic acid) was connected to the acetaminophen through an ether bond (C—O—C) to prevent the esterolytic cleavage by lipase.

[3] = test system: mesenchymal stem cells (MSCs); assay: MSC viability, trypan blue exclusion; format: cell-based, human
Procedure: Cytocompatibility. The cytocompatibility of prodrugs generated from small modification of known drugs was investigated. […] To test the cyto compatibility of prodrug-based amphiphiles and bolaamphiphiles, and their effect on cell characteristics such as viability, proliferation, adhesion and cell phenotype, a series of experiments was performed with mesenchymal stem cells (MSCs). To gain more insight into the effect of modification, unmodified drug Apn was used as a control. The viability of control cells and cells treated with Apn, Apn-7-COOH and Apn-8-Apn was examined with trypan blue assay. Use of Mesenchymal stem cells is appropriate given that these systems may be used for localized release likely into connective tissues.
Mesenchymal Stem Cell Culture. Primary human mesenchymal stem cells were maintained in expansion media that consisted of 15% Fetal Bovine Serum (selected for its ability to expand MSCs), 1% (v/v) L-Glutamine, 1% (v/v) Penn-Strep, and α-MEM. All experiments were performed using MSCs at passage number 4-6.
Viability, Adhesion and Proliferation Characteristics. The viability of the cells was examined using trypan blue exclusion. […] The media was then aspirated and the cells were detached with 200 μL of cell dissociated solution (similar quantities of floating cells were observed between the groups, typically 5-10 per well). 300 μL of media was added and the total 500 μL of the cell dispersion was collected in an eppendorf tubes. From this 10 μL of cell dispersion was diluted to 1:1 with 4% trypan blue solution and cells were counted in a hemocytometer to determine the number viable (non-blue) and nonviable (blue) cells. A control for this experiment included cells treated with only phosphate buffer saline (PBS) without an amphiphile. Cell adhesion was quantified by measuring the number of adherent cells on tissue culture surfaces in 96 well plates after incubating with amphiphiles for 12 hours. For proliferation studies, 5000 cells were added to each well of a 96 well plate in 200 μL of MSC cell expansion media, and appropriate amphiphiles were then added and incubated at 37° C. and 5% CO2. Proliferation was quantified by manually tabulating the number of cells within the flask at multiple time points (1, 2, 3, 4, 6 and 8 days) with light microscopy at 10×.

With `CC(=O)Nc1ccc(OC(=O)CCCCCCC(=O)O)cc1` [Apn-7-COOH] the “solubility in basic solutions” value ([1]; pH is more than 8) was “soluble”, the Gelation ability ([1]; solvent chloroform) was “S” and the Gelation ability ([1]; solvent ethanol) was “S”. For the same molecule, the Gelation ability ([1]; solvent ethyl acetate) was “I”, the Gelation ability ([1]; solvent isopropanol) was “I” and the Gelation ability ([1]; solvent methanol) was “S”. The Gelation ability ([1]; solvent t-butanol) was “I”, the Gelation ability ([1]; solvent water) was “G” and the minimum gelation concentration ([1]; solvent water) was 0.4 wt/v %. The “gelation in water (in words)” value ([1]; water / aqueous solutions) was “forms excellent gels”, the “time after which absorbance of released curcumin did not increase” value ([2]; curcumin released from degradation of hydrogel) was 24 h and the “time of first aliquots showing curcumin absorption maxima (425 nm)” value ([2]; curcumin-encapsulated hydrogel 2 wt %, lipase, 37° C.) was 4 h. For the same molecule, the “burst release of curcumin” value ([2]; curcumin-encapsulated hydrogel 2 wt %, lipase, 37° C., absorbance maxima vs time) was “absence of burst release”, the “products found by thin-layer chromatography after gel degradation” value ([2]; hydrogel 2 wt %, lipase, 37° C., 48 hours) was “acetaminophen and α,ω-dicarboxylicacid were generated” and the “time after which the gel completely degraded” value ([2]; preformed hydrogel 2 wt %, lipase added, 37° C.) was 48 h. For the same molecule, the viable cells ([3]; 250 μM, 48 hours incubation) was 87% and the “viability rates over concentration range” value ([3]; up to 500 μM, 48 hours) was “not significantly affected”.
